Results reported in US20120283313A1, “INHIBITION AND TREATMENT OF PROSTATE CANCER METASTASIS” (NORTHWESTERN UNIVERSITY, priority 2007, published 2012).
“Also recorded” adds a separate entry of the source. Like-named read-outs stand apart in the source and are kept apart here.

Experiments:
[1] = men, 2 mg genistein/kg/day for 1 month
PC3M cells = assay: quantitative image analysis of nuclear morphology, mouse tissue; assay type: in vivo, mice; details: 250 mg genistein vs controls
Excerpt: Change in cell morphology is a generally recognized measure of change in cell adhesion. Compounds which increase cell adhesion of prostate cancer cells in vivo may inhibit prostate cancer metastasis. […] Quantitative image analysis according to established methods was used to measure in vivo changes in nuclear morphology in the prostate. (Bartels, et al., Prostate, 48:144-55, (2001); Boone, et al., Urology, 57:129-31 (2001); Bartels, et al., Anal. Quant. Cytol. Histol. 20:397-406 (1998); Bartels et al., Anal. Quant. Cytol. Histol. 20:389-96; Veltri, et al., J. Cell Biochem. Suppl., 151-57 (2000); herein incorporated by reference in their entireties).
Mouse: From the mouse experiment of Example 5, primary (prostate gland) and metastatic (local lymph nodes) tissue was Feulgen-stained, and the nuclear morphology of PC3M cells was quantitated on a ChromaVision ACIS® II Image Analysis System. […] Specifically, for lymph node: cell area increased by 19.5±2.1%, cell length by 9.1±1.1%, and cell width by 9.5±1.1% (p:S 0.01 for all). For primary tumor: cell length increased by 3.0±1.1% (p:S 0.05).

MEK4 = assay: TGFβ stimulated phosphorylation of MEK4 in vivo; assay type: cell-based
Method: Phosphorylation by MEK4 (FIG. 4A) and phosphorylation of MEK4 (FIG. 7) was assayed. The Upstate Biotechnology MEK4 assay system was used to measure inhibition of MEK4 activity. Phosphorylation of MEK4 in vivo was assayed using standard techniques.

human PC3-M PCa cells = assay: orthotopic PC3-M implantation metastasis model in athymic mice
[2] = tested on: human prostate cancer (PCa) cell lines; assay: cell invasion assay of PCa cell lines with genistein / siMEK4; assay type: cell-based
Excerpt: MEK expression was examined in six human prostate cancer (PCa) cell lines: PC3 and PC3-M metastatic PCa cells, 1532CPTX and 1542 CPTX immortalized localized PCa cells, and 1532 NPTX and 1542 NPTX immortalized normal epithelial cells. The last four cell lines are primary cells, are HPV transformed, and thus represent early stages of prostate carcinogenesis. They provide representative members of the metastatic phenotype, as well as members of early state phenotypes. […] All six cell lines also secrete as well as respond to TGFβ, a regulator of cell motility that plays a role in PCa cell invasiveness.
Assays were conducted using methods as described in Craft et al. (2008, Mol. Pharmocol., 73(1):235-242; herein incorporated by reference in its entirety).

[3] = tested on: prostate epithelial cells; assay: Phase 2 trial: LCM and 12K gene array of prostate epithelial cells; assay type: in vivo, human
Excerpt: In particular, methodology was employed wherein prostate epithelial cells are selectively removed from human prostate tissue by laser capture microdissection (LCM), the resultant RNA linear amplified, and custom manufactured 12K gene arrays are probed. Ding, et al., Id.

MMP-2 = assay: Phase 2 trial: MMP-2 transcript levels by LCM and qRT/PCR; assay type: in vivo, human; details: normal prostate epithelial cells, 2 mg genistein/kg/day, normalized to GAPDH
p38 MAP kinase = assay: Western blot of primary tumor tissue for p38 MAP kinase; assay type: in vivo, mice; details: fresh frozen primary tumor tissue
[4] = mice, free about a tenth of total
[5] = men, 2 to 8 mg genistein/kg; cited from earlier work
[6] = tested on: prostate epithelial cells; assay: Phase 2 trial: nuclear morphology of prostate epithelial cells; assay type: in vivo, human; details: men, genistein treated vs controls
Excerpt: Though morphologically “normal,” these cells are present within organs with PCa, have pre-cancer molecular changes, and represent an appropriate target cell type for therapy that inhibits a process associated with PCa progression, in this case, development of the metastatic phenotype. […] These findings are consistent with its effects in vitro and in mice.

Question: What does the source list for `O=c1c(-c2ccc(O)cc2)coc2cc(O)cc(O)c12` [genistein]?
Answer: trough concentration of free genistein, mean±SEM [1]: 26.6 ± 6.6 nM; increase in cell area (PC3M cells; lymph node): 19.5±2.1%; increase in cell length (PC3M cells; lymph node): 9.1±1.1%; increase in cell width (PC3M cells; lymph node): 9.5±1.1%; increase in cell length (PC3M cells; primary tumor): 3.0±1.1%; TGFβ stimulated phosphorylation of MEK4 (MEK4): does not block TGF-β stimulated phosphorylation of MEK4 itself; also recorded: does not block such phosphorylation; tumor volume (human PC3-M PCa cells; 0, 100, 250 mg genistein/kg chow): but not tumor volume; weight of mice (human PC3-M PCa cells; between dosing cohorts): no difference in the weight of mice between cohorts; effect of genistein on invasiveness when MEK4 expression suppressed by siMEK4 ([2]; PCa cells, genistein plus siMEK4): the effect of genistein was abrogated; invasion of PCa cells ([2]; early and late stage PCa cell lines, presence of genistein): inhibits invasion of both early and late stage PCa cells; gene array expression level, mean (SE) ([3]; MALATI, genistein-treated subjects): 8.22 (0.87); gene array expression level, mean (SE) ([3]; brain acid-soluble protein 1, genistein-treated subjects): 13.3 (0.34); gene array expression level, mean (SE) ([3]; heat shock protein 90, genistein-treated subjects): 8.51 (0.5); gene array expression level, mean (SE) ([3]; heparin cofactor II, genistein-treated subjects): 2.19 (0.21); gene array expression level, mean (SE) ([3]; prostate acid phosphatase, genistein-treated subjects): 6.85 (0.49); gene array expression level, mean (SE) ([3]; sorbitol dehydrogenase, genistein-treated subjects): 5.33 (0.59); MMP-2 transcript level, percent of controls (mean±SEM) (MMP-2): 24±4.1%; level of total p38 MAP kinase protein (p38 MAP kinase): total amount of p38 MAP kinase increased; phosphorylation of p38 MAP kinase (p38 MAP kinase): decreasing phosphorylation of p38 MAP kinase; also recorded: decreased its phosphorylation; estimated free concentration ([4]; 100 mg cohort): 29 nM; estimated free concentration ([4]; 250 mg cohort): 131 nM; peak concentration of total genistein [5]: 4.3 to 16.3 nM; increase in length (nuclear morphology) [6]: 1.5±0.7%; increase in width (nuclear morphology) [6]: 2.7±0.7%; increase in area (nuclear morphology) ([6]; only a trend): 2.0±1.0%
